Experimental data: patent US10111822B2, “External dermal composition for anti-ageing and method for producing the same” (Hayashibara Co., Ltd., priority 2012, dated 2018)

Tests used:
Format in all cases: cell-based, human
hyaluronic acid = experiment: Hyaluronic acid production in NHEK cells (ELISA); details: 3 days, control 1003 ± 111.6
Source text: In accordance with “Evaluation Method for Enhancing Hyaluronic acid Synthesis” disclosed in “Evaluation and Experimental Manual for Humectancy, Skin whitening, Anti-wrinkle, and Anti-oxidation”, edited by Hitoshi Masaki, published by Fragrance Journal, pp. 94 to 97, 2012, NHEK cells as a model for typical normal human epidermal cells were suspended in EpiLife medium (pH 7.4), commercialized by Invitrogen Corporation, Calif., USA, inoculated to 12-well microplates at a cell density of 5×10^4 cells/well, and incubated overnight under conditions of 37° C. and 5% v/v CO2. Thereafter, the cell culture medium was replaced with a fresh HuMedia-KG2 medium commercialized by Kurabo Industries Ltd., Osaka, Japan; and “AA2G”, a particulate composition containing anhydrous crystalline ascorbic acid 2-glucoside, commercialized by Hayashibara Co., Ltd., Okayama, Japan, was added to each well to give a final concentration of 0.25, 0.5, or 1 mM, followed by culturing the cells for three days under the conditions of 37° C. and 5% v/v CO2. After completion of the culture, the supernatant in each well was immediately collected and quantified for hyaluronic acid by “Hyaluronan, DuoSet Kit”, product code: DY3614, a product name of a commercialized enzyme-linked immunosorbent assay (ELISA) purchased from R & D Systems, Minneapolis, USA. As a control, there was provided a culture system, where cells are cultured similarly as above except for not adding ascorbic acid 2-glucoside.

Dickkopf-1 (DKK1) = experiment: Production of DKK1 in NHDF cells (ELISA); details: for DKK1 Production level, First day: n=3, control 0.115 ± 0.012; for DKK1 Production level, Third day: n=3, control 0.217 ± 0.021
Experimental: NHDF Cells, which had been diluted with a culture medium to give a cell density of 1×10^4 cells/well, were inoculated to 96-well plates. At 24 hours after the inoculation, the supernatant in each well of the plates was removed, followed by adding ascorbic acid 2-glucoside to each well of the plates to give a final concentration of 0.5, 1, 2, 4, or 8 mM. As a control, a cell culture system with no addition of ascorbic acid 2-glucoside was provided. At the first and third days of culturing after the addition of ascorbic acid 2-glucoside, the supernatant in each well of the plates was collected and quantified (n=3) for DKK1 with “RayBio”, a product name of an ELISA for DKK1 assay, commercialized by RayBiotech Inc., Georgia, USA. Statistical analysis of the data was performed by t-test (see “Kiso-Tokeigaku (Basic Statistics) III Statistics of Natural Science”, page 187, 2008, edited by University of Tokyo Press).

ZO-1 = experiment: TJ-related protein ZO-1 in NHEK cells (Western); details: 3 days, CaCl2 positive control = 100%, no addition 38%
Experimental: The following experiment was conducted to examine the effect of ascorbic acid 2-glucoside on the production of TJ-related proteins that constitute cell-cell adhesion structures by focusing on occludin and ZO-1 that are focused on as TJ-related proteins known to exist in a granular layer of epidermis: As a model for typical normal human epidermal cells, NHEK cells were suspended in EpiLife medium (pH 7.4); inoculated to 12-well microplates at a cell density of 1×10^5 cells/well; cultured overnight under the conditions of 37° C. and 5% v/v CO2; and further cultured for three days under the conditions of 37° C. and 5% v/v CO2 after adding either CaCl2 as a positive control to each well to give a final concentration of 0.5 mM, or “AA2G”, a product name of a particulate composition containing anhydrous crystalline ascorbic acid 2-glucoside, commercialized by Hayashibara Co., Ltd., Okayama, Japan, to give a final concentration of 0.5 or 1 mM. […] A sample of 20 μg protein for each lane per each cell extract in respective wells was applied to sodium dodecyl sulfate polyacrylamide gel electrophoresis (SDS-PAGE) with 10% w/v SDS containing DTT, followed by assaying the concentration of occludin or ZO-1 in each cell extract with “Luminate Western HRP Substrates”, a product name of a premixed, ready-to-use chemiluminescent detection reagent using an internal standard “α-Tubulin”, commercialized by Merck KGaA, Darmstadt, Germany, wherein there were used “F-11”, a product name of an anti-occludin mouse monoclonal antibody, commercialized by Santa Cruz Biotechnology, Inc., Texas, USA, or “ZO1-1A12”, a product name of a ZO-1 mouse monoclonal antibody, commercialized by Invitrogen Corporation, Calif., USA, was used as a first antibody; and “PO447”, a product name of a horseradish peroxidase (HRPO) labeled anti-mouse IgG, commercialized by DAKO Japan Inc., Tokyo, Japan, or “PO448”, a product name of an HRPO-labeled anti-rabbit IgG, commercialized by DAKO Japan Inc., Tokyo, Japan, as a secondary antibody. […]

## O=C1O[C@H]([C@@H](O)CO)C(O)=C1O[C@H]1O[C@H](CO)[C@@H](O)[C@H](O)[C@H]1O [ascorbic acid 2-glucoside, 2-O-α-D-glucosyl-L-ascorbic acid]
Hyaluronic acid; 0.25 mM
  Hyaluronic acid concentration in culture supernatant: 1222 ± 93.6 ng/mL
Hyaluronic acid; 0.5 mM
  Hyaluronic acid concentration in culture supernatant: 1268 ± 125.2 ng/mL
Hyaluronic acid; 1 mM
  Hyaluronic acid concentration in culture supernatant: 1436 ± 216 ng/mL
Dickkopf-1 (DKK1); 0.5 mmol/L
  DKK1 Production level, First day: 0.117 ± 0.018 ng/mL
  DKK1 Production level, Third day: 0.317 ± 0.035 ng/mL
Dickkopf-1 (DKK1); 1 mmol/L
  DKK1 Production level, First day: 0.129 ± 0.017 ng/mL
  DKK1 Production level, Third day: 0.315 ± 0.042 ng/mL
Dickkopf-1 (DKK1); 2 mmol/L
  DKK1 Production level, First day: 0.149 ± 0.037 ng/mL
  DKK1 Production level, Third day: 0.339 ± 0.030 ng/mL
Dickkopf-1 (DKK1); 4 mmol/L
  DKK1 Production level, First day: 0.146 ± 0.016 ng/mL
  DKK1 Production level, Third day: 0.392 ± 0.014 ng/mL
Dickkopf-1 (DKK1); 8 mmol/L
  DKK1 Production level, First day: 0.179 ± 0.032 ng/mL
  DKK1 Production level, Third day: 0.413 ± 0.033 ng/mL
ZO-1; 0.5 mM
  ZO-1 Concentration in cell extract: 72%
ZO-1; 1 mM
  ZO-1 Concentration in cell extract: 92%
